Tests used:
[1] = tested on: Karpas 1106, SU-DHL-5, SeAx and HUT-78 cells; assay: Cell viability (MTS) of hematologic cancer cell lines under low serum; format: cell-based; details: increasing concentrations, 24 hours, low serum conditions (0.5-5%), FIG. 1A
Procedure: (A) Karpas 1106, SU-DHL-5, SeAx and HUT-78 cells were plated at a densities of 6×10^3 in 96 well plates (100 μL total volume per well) and treated for 24 hours in a 37° C. incubator (5% CO2) with increasing concentrations of the Antp-AAC-11-LZ (363-399). 20 μL MTS reagent was then added to each well and plates were incubated for an additional 4 hours. Absorbance was measured at 490 nm using a 96-well plate reader. The extent to which the Antp-AAC-11-LZ (363-399) peptide inhibited cell proliferation was calculated as a percentage of the absorbance in each well containing the Antp-AAC-11-LZ (363-399) peptide relative to wells containing no peptide (negative control). […]
Viability of cells cultured in the 96-well culture plates was assessed by measuring mitochondrial dehydrogenase activity, using the colorimetric CellTiter 96® AQueous One Solution Cell Proliferation Assay (Promega), according to the manufacturer′ instructions. […] The color can then be quantified using a simple colorimetric assay. The results are read on a multiwall scanning spectrophotometer (ELISA reader).
The inventors evaluated the capacity of the Antp-AAC-11-LZ (363-399) peptide to induce cell death a panel of hematologic and solid tumor cell lines, both P53 positive and P53 negative, derived from different tissues of origin, under low serum conditions (0.5-5%). […]

D3H2LN cells = assay: Matrigel invasion assay, D3H2LN cells; format: cell-based; details: 2 μM, toward 10% FBS, 24 h, FIG. 7B
Procedure: FIG. 7: Antp-AAC-11-LZ (363-399) peptide inhibits cell migration and invasion. (A) D3H2LN cells were added to the upper well of modified Boyden chamber (transwell) plates with a vehicle or with either 2 μM of the Antp-AAC-11-LZ (363-399) peptide or the Antp-only peptide and subjected to a transwell migration assay as described under Materials and methods. The cells were allowed to migrate toward 10% FBS for 12 […]h. Triplicate wells were used for each of three independent experiments. The results are expressed relative to the migration of the untreated cells (=100%). Column: Mean of three experiments. Bar: s.e. P-value was determined by Student's t-test (*P<0.01). (B) D3H2LN cells were seeded in a Matrigel-coated Boyden chamber with a vehicle or with either 2 μM of the Antp-AAC-11-LZ (363-399) peptide or the Antp-only peptide and subjected to a transwell migration assay as described under Materials and methods. The cells were allowed to migrate toward 10% FBS for 24 […]h. Triplicate wells were used for each of three independent experiments. The results are expressed relative to the migration of the untreated cells (=100%). Column: Mean of three experiments. Bar: s.e. P-value was determined by Student's t-test (*P<0.01) […]

[2] = tested on: human triple-negative breast cancer xenograft PDX01; assay: Triple-negative breast cancer patient-derived xenograft PDX01 in nude mice; format: in vivo; details: 2.4 mg/kg i.p., 7 daily injections, FIG. 8B
Procedure: Breast cancer fragments were obtained from patients at the time of surgery, with informed written patient consent. After imaging-guided human tumor biopsies had been performed, fragments of 30 to 60 mm^3 were subcutaneously grafted in 6-week-old NMRI-nude mice (Centre-Elevage-Janvier, France), under xylasin (10 mg/kg)/ketamin (100 mg/kg) anesthesia. Mice were maintained in specific pathogen-free animal housing (Institut Universitaire d'Hematologie) and received estrogen (17 mg/mL) diluted in drinking water. Xenografts were characterized and subsequently subcutaneously transplanted from mouse to mouse. […] Two human triple-negative breast cancer (HBC) xenografts models were used in our experiments (PDX01 and PDX02). […] Following transplantation (n=6 per model) tumor growth was assessed by measuring tumor size in two dimension using a Vernier caliper. Tumor volume was calculated using the formula [3.14×long axis×short axis×short axis]/6 (Kjonniksen et al., 1989). […] Mice were weighted and the tumor size was measured by a caliper and recorded daily. Fourteen days after beginning of the treatment mice were sacrificed. The tumors, kidney, lungs, heart, liver, pancreas and spleen were taken and fixed. Paraffin-embedded sections were prepared and stained with hematoxylin and eosin for histological analysis.

Substance: Ac-RQIKIWFKKQNRRMKWKKAKLNAEKLKDFKIRLQYFARGLQVYIRQLRLALQGKT-NH2 [Antp-AAC-11-LZ (363-399)]
- loss of cellular viability [1]: drastic loss of cellular viability
- cell invasion (D3H2LN cells): prevented invasion
- tumor size versus vehicle [2]: significantly smaller tumors

Source: US10358469B2, “Methods and pharmaceutical compositions for the treatment of cancer” (INSERM (INSTITUT NATIONAL DE LA SANTÉ ET DE LA RECHERCHE …, priority 2014, dated 2019)
